Source: paper PMC11089506 (Journal of Medicinal Chemistry, 2024)
Where a name gives a salt, the structure may show the parent alone.

Columns and labels:
[1] = target: T1, H2 (histaminergic receptor) (Homo sapiens, UniProt P25021); assay: radioligand competition binding, [125I]APT
T1 construct: Eurofins

Opioid receptor δ = target: T2, Opioid receptor δ (Homo sapiens, UniProt P41143); assay: radioligand competition binding, [3H] Naltrindole
T2 construct: Eurofins

GABAA receptor (benzod.) = assay: radioligand competition binding, [3H]Flunitrazepam; parameters: species or system rat
GABAA receptor (GABA) = assay: radioligand competition binding, [3H]Muscimol; parameters: species or system rat
Opioid receptor μ = target: T3, Opioid receptor μ (Homo sapiens, UniProt P35372); assay: radioligand competition binding, [3H]Diprenorphine (second line)
T3 construct: Eurofins

NMDA receptor (Glycine) = target: T4, NMDA receptor (Glycine) (Rattus norvegicus, UniProt P35439); assay: radioligand competition binding, [3H]MDL 105,519
T4 construct: Eurofins

Tachykinin receptor NK1 = target: T5, Tachykinin receptor NK1 (Homo sapiens, UniProt P25103); assay: radioligand competition binding, [3H]Substance P
T5 construct: Eurofins (contract laboratory)

Prostanoid receptor EP4 = target: T6, Prostanoid receptor EP4 (Homo sapiens, UniProt P35408); assay: radioligand competition binding, [3H]Prostaglandin E2
T6 construct: Eurofins

[2] = target: T7, α2C (adrenergic receptor) (Homo sapiens, UniProt P18825); assay: radioligand competition binding, [3H]RX 821002
T7 construct: Eurofins

Adenosine receptor A3 = target: T8, Adenosine receptor A3 (Homo sapiens, UniProt P0DMS8); assay: radioligand competition binding, [125I]AB-MECA
T8 construct: Eurofins

[3] = target: T9, Neuropeptide Y receptor Y2 (Homo sapiens, UniProt P49146); assay: radioligand competition binding, [125I]Peptide YY
T9 construct: Eurofins

Thyroid hormone receptor = assay: radioligand competition binding, [125I]Triiodothyronine; parameters: species or system rat
M4 (muscarinic receptor) = target: T10, M4 (muscarinic receptor) (Homo sapiens, UniProt P08173); assay: radioligand competition binding, [3H]4-DAMP
T10 construct: Eurofins
T10 sequence (P08173 1-479): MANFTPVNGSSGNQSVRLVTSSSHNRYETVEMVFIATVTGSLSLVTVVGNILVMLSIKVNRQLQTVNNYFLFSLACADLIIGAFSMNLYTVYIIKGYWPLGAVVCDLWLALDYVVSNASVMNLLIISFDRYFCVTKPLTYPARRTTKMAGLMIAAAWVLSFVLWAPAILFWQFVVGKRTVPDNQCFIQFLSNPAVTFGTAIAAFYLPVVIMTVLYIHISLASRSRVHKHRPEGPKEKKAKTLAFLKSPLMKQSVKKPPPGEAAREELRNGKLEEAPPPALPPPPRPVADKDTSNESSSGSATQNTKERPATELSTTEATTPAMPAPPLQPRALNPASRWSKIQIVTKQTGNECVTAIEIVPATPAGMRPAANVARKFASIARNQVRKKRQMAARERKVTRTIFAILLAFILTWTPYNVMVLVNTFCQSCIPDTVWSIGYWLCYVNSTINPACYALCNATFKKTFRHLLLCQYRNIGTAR

[4] = target: T11, Platelet Activating Factor Receptor (Homo sapiens, UniProt P25105); assay: radioligand competition binding, [3H]PAF
T11 construct: Eurofins

[5] = target: Ca2+ Channel L-Type, (Dihydropyridine) (Rattus norvegicus, UniProt P22002); assay: biochemical; conditions: read-out: % inhibition of the specific radioligand binding
5-HT4e = target: T12, 5-HT4e (Homo sapiens, UniProt Q13639); assay: radioligand competition binding, [3H]GR 113808
T12 construct: Eurofins

[6] = target: T13, D5 (dopaminergic receptor) (Homo sapiens, UniProt P21918); assay: radioligand competition binding, [3H]SCH 23390; conditions: read-out: % inhibition of the specific radioligand binding
T13 construct: Eurofins

K+ Channel (KATP) = target: T14, K+ Channel (KATP) (Cricetus cricetus, UniProt Q09427); assay: radioligand competition binding, [3H]Glyburide; parameters: species or system hamster
T14 construct: Eurofins

NET = target: T15, NET (Homo sapiens, UniProt P23975); assay: radioligand competition binding, [3H]nisoxetine
T15 construct: Eurofins

5-HT6 = target: T16, 5-HT6 (Homo sapiens, UniProt P50406); assay: radioligand competition binding, [3H]LSD
T16 construct: Eurofins

Purinergic receptor P2Y = assay: radioligand competition binding, [35S]dATPαS; parameters: species or system rat
Adrenergic receptor α1B = target: T17, Adrenergic receptor α1B (Homo sapiens, UniProt P35368); assay: radioligand competition binding, [3H]Prazosin
T17 construct: Eurofins

5-HT3 = target: T18, 5-HT3 (Homo sapiens, UniProt P46098); assay: radioligand competition binding, [3H]BRL 43694; conditions: read-out: % inhibition of the specific radioligand binding
T18 construct: Eurofins

Imidazoline receptor I2 = assay: radioligand competition binding, [3H]Idazoxan; parameters: species or system rat
[7] = target: T19, D3 (dopaminergic receptor) (Homo sapiens, UniProt P35462); assay: radioligand competition binding, [3H]methyl-spiperone; conditions: read-out: % inhibition of the specific radioligand binding
T19 construct: Eurofins

Kainate receptor = assay: radioligand competition binding, [3H]Kainic acid; parameters: species or system rat
SERT = target: T20, SERT (Homo sapiens, UniProt P31645); assay: radioligand competition binding, [3H]imipramine
T20 construct: Eurofins

[8] = target: T21, Leukotriene receptor CysLT1 (Homo sapiens, UniProt Q9Y271); assay: radioligand competition binding, [125I]LTD4
T21 construct: Eurofins

DAT = target: T22, DAT (Homo sapiens, UniProt Q01959); assay: radioligand competition binding, [3H]BTCP
T22 construct: Eurofins

Phosphodiesterase = assay: radioligand competition binding, [3H]Rolipram; parameters: species or system rat
[9] = estimated from the % inhibition data
[10] = read-out: % inhibition of the specific radioligand binding

T16 sequence (P50406 whole entry): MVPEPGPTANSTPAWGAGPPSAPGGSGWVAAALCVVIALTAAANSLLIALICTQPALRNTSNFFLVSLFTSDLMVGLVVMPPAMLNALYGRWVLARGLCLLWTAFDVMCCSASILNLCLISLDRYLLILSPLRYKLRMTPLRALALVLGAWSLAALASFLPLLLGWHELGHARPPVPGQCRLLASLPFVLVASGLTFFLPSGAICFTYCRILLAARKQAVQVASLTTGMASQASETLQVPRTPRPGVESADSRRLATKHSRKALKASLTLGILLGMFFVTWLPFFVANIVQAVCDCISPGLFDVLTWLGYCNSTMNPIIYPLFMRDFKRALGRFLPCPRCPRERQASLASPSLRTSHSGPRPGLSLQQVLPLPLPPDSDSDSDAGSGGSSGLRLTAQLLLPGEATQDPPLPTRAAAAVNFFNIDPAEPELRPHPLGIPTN
T7 sequence (P18825 whole entry): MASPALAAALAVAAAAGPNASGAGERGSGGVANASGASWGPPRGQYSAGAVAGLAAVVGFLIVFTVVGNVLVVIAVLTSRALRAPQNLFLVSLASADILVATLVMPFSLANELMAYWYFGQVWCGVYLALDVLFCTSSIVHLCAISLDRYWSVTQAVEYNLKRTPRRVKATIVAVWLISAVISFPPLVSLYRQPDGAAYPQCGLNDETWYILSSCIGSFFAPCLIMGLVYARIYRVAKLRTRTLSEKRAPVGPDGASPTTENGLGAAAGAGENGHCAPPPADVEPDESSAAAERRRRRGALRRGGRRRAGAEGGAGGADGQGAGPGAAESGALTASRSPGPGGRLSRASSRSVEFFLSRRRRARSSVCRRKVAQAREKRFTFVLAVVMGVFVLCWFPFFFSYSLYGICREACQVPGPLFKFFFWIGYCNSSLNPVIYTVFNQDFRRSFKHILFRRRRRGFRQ
T14 sequence (Q09427 whole entry): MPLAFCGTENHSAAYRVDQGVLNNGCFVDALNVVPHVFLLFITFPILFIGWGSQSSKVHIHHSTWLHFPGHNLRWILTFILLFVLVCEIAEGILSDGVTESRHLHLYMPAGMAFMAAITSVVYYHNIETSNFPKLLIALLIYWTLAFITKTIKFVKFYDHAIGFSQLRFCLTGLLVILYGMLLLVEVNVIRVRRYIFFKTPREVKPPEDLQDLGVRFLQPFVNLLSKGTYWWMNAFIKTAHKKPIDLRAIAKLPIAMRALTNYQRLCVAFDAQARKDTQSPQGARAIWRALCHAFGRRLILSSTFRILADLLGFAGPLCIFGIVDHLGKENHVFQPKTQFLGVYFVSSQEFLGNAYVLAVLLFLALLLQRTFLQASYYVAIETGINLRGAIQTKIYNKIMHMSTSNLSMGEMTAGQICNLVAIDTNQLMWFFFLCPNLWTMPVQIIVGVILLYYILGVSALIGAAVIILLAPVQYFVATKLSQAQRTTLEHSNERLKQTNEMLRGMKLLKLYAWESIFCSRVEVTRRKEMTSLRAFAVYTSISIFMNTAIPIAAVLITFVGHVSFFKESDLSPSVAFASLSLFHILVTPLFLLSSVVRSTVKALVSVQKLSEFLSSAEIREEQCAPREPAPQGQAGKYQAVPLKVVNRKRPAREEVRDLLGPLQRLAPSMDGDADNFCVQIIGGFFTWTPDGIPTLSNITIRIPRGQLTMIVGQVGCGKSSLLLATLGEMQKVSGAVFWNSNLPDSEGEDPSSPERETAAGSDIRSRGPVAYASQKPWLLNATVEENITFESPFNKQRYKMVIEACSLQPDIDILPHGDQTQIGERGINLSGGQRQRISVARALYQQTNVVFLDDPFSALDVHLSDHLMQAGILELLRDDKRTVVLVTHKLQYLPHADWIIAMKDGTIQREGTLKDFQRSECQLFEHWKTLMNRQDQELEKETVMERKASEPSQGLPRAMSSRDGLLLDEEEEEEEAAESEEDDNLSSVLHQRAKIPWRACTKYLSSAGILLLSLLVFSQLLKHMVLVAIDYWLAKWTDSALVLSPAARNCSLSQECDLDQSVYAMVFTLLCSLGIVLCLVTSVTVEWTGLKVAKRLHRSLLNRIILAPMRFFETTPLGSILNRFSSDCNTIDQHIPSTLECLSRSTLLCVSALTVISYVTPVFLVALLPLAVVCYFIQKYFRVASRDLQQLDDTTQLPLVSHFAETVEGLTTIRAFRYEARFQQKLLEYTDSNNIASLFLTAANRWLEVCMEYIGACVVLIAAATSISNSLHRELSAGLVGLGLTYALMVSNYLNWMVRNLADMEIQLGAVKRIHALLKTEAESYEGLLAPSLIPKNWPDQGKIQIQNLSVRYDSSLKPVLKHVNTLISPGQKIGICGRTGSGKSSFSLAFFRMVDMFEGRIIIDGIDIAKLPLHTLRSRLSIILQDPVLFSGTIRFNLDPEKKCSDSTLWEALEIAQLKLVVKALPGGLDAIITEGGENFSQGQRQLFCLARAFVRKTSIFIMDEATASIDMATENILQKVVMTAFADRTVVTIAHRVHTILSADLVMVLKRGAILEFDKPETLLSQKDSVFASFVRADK
T2 sequence (P41143 whole entry): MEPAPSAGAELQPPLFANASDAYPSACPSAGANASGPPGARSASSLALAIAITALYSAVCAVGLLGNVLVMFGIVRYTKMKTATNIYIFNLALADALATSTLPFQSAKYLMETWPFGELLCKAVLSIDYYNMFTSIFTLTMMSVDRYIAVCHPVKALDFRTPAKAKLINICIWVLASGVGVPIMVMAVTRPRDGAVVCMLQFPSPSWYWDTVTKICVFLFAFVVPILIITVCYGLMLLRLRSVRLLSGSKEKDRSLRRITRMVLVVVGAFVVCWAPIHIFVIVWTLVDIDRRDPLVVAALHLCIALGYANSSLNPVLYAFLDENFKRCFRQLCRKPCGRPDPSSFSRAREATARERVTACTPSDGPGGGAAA
T15 sequence (P23975 whole entry): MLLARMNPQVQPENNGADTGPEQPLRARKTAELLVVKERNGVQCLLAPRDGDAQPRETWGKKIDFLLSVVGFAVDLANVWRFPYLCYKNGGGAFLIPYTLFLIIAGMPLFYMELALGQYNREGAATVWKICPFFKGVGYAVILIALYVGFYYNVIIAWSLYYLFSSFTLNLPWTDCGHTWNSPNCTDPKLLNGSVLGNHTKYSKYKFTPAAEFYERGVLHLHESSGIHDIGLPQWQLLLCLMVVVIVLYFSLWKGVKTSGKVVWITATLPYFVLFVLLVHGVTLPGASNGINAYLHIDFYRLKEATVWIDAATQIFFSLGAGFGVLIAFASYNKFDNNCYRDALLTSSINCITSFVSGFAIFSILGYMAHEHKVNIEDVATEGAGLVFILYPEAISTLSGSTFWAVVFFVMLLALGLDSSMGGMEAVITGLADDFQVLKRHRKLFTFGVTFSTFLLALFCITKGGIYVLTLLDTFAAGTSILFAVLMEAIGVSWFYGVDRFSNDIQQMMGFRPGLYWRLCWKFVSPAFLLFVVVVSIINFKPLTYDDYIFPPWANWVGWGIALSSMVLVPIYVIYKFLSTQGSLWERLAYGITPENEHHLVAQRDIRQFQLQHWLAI
T5 sequence (P25103 whole entry): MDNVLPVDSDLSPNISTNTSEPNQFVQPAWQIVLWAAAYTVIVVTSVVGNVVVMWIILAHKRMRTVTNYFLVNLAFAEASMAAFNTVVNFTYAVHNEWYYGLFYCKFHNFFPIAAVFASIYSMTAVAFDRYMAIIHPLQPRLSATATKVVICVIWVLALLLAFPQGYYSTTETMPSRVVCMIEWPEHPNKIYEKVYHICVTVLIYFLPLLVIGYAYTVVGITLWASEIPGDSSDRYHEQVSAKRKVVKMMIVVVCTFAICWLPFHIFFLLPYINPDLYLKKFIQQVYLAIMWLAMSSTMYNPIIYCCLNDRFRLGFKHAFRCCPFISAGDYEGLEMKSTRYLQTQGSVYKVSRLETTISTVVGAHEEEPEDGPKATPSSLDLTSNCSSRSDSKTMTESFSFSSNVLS
T12 sequence (Q13639 1-378 isoform Q13639-5): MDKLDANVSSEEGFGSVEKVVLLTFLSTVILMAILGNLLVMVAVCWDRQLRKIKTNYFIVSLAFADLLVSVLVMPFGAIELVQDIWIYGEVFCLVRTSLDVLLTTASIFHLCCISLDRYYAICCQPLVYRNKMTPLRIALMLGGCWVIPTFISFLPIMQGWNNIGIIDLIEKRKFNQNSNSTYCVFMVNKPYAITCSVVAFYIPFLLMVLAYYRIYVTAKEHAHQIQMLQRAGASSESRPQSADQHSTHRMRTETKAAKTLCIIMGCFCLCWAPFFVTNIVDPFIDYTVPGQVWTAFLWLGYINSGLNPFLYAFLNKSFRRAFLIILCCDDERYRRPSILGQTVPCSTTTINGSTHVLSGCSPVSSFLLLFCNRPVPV
T8 sequence (P0DMS8 whole entry): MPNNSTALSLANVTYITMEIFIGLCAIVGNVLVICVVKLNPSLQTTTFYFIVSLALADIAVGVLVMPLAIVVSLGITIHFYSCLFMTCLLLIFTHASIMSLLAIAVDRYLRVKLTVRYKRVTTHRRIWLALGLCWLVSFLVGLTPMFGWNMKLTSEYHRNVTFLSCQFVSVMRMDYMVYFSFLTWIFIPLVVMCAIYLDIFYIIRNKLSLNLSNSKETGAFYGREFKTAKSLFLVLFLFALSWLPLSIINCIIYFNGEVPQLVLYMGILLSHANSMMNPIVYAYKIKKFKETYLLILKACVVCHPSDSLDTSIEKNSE
T1 sequence (P25021 whole entry): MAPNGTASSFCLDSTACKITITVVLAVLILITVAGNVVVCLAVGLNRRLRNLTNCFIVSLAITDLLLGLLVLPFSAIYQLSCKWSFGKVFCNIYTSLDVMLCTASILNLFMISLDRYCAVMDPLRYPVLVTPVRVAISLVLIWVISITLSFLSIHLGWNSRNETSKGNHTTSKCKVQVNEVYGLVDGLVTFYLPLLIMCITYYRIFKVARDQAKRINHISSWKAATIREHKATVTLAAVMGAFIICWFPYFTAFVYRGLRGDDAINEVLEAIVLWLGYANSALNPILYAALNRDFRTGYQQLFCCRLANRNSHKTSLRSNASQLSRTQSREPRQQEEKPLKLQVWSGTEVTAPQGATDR

For COc1cc(C(F)(F)F)c(OC)cc1[C@@H]1CCCNC1 [(S)-11, 3-(2,5-Dimethoxy-4-(trifluoromethyl)phenyl)piperidine Hydrochloride], the IC50 [1, 9] was > 10 µM, the inhibition at 10 µM [1, 10] was 10% and the IC50 (Opioid receptor δ; [9]) was > 10 µM. The inhibition at 10 µM (Opioid receptor δ; [10]) was 18%, the “% inhibition of the specific radioligand binding” value (“% inhibition” for short) (GABAA receptor (benzod.); (S)-11 10 μM, n=1) was -14% and the IC50 (GABAA receptor (benzod.); [9]) was > 10 µM. The “% inhibition” value (GABAA receptor (GABA); (S)-11 10 μM, n=1) was 1%, the IC50 (GABAA receptor (GABA); [9]) was > 10 µM and the IC50 (Opioid receptor μ; [9]) was > 10 µM. For the same compound, the inhibition at 10 µM (Opioid receptor μ; [10]) was 18%, the IC50 (NMDA receptor (Glycine); [9]) was > 10 µM and the inhibition at 10 µM (NMDA receptor (Glycine); [10]) was -20%. The IC50 (Tachykinin receptor NK1; [9]) was > 10 µM, the inhibition at 10 µM (Tachykinin receptor NK1; [10]) was 31% and the IC50 (Prostanoid receptor EP4; [9]) was > 10 µM. For the same compound, the inhibition at 10 µM (Prostanoid receptor EP4; [10]) was 9%, the IC50 [2, 9] was > 10 µM and the inhibition at 10 µM [2, 10] was 36%. The IC50 (Adenosine receptor A3; [9]) was > 10 µM, the inhibition at 10 µM (Adenosine receptor A3; [10]) was -10% and the IC50 [3, 9] was > 10 µM. For the same compound, the inhibition at 10 µM [3, 10] was 3%, the “% inhibition” value (Thyroid hormone receptor; (S)-11 10 μM, n=1) was -1% and the IC50 (Thyroid hormone receptor; [9]) was > 10 µM. For the same compound, the IC50 (M4 (muscarinic receptor); [9]) was 1 to 10 µM, the inhibition at 0.1 µM (M4 (muscarinic receptor); [10]) was 9% and the inhibition at 1 µM (M4 (muscarinic receptor); [10]) was 38%. For the same compound, the inhibition at 10 µM (M4 (muscarinic receptor); [10]) was 80%, the IC50 [4, 9] was > 10 µM and the inhibition at 10 µM [4, 10] was -11%. For the same compound, the inhibition at 10 µM [5] was -6%, the IC50 (5-HT4e; [9]) was > 10 µM and the inhibition at 10 µM (5-HT4e; [10]) was 30%. For the same compound, the inhibition at 10 µM [6] was 26%, the IC50 (K+ Channel (KATP); [9]) was > 10 µM and the inhibition at 10 µM (K+ Channel (KATP); [10]) was -2%. The IC50 (NET; [9]) was > 10 µM, the inhibition at 10 µM (NET; [10]) was -4% and the IC50 (5-HT6; [9]) was 1 to 10 µM. For the same compound, the inhibition at 1 µM (5-HT6; [10]) was 24%, the inhibition at 10 µM (5-HT6; [10]) was 77% and the “% inhibition” value (Purinergic receptor P2Y; (S)-11 10 μM, n=1) was 2%. For the same compound, the IC50 (Purinergic receptor P2Y; [9]) was > 10 µM, the IC50 (Adrenergic receptor α1B; [9]) was > 10 µM and the inhibition at 10 µM (Adrenergic receptor α1B; [10]) was 33%. For the same compound, the inhibition at 10 µM (5-HT3) was 6%, the “% inhibition” value (Imidazoline receptor I2; (S)-11 10 μM, n=1) was 17% and the IC50 (Imidazoline receptor I2; [9]) was > 10 µM. The inhibition at 10 µM [7] was 40%, the “% inhibition” value (Kainate receptor; (S)-11 10 μM, n=1) was 9% and the IC50 (Kainate receptor; [9]) was > 10 µM. For the same compound, the IC50 (SERT; [9]) was > 10 µM, the inhibition at 10 µM (SERT; [10]) was 22% and the IC50 [8, 9] was > 10 µM. The inhibition at 10 µM [8, 10] was -7%, the IC50 (DAT; [9]) was > 10 µM and the inhibition at 10 µM (DAT; [10]) was 12%. The “% inhibition” value (Phosphodiesterase; (S)-11 10 μM, n=1) was 8% and the IC50 (Phosphodiesterase; [9]) was > 10 µM.
